The values below come from PubChem BioAssay AID504820 (Southern Research Specialized Biocontainment Screening …, 2011).

Assay [1] has as its system HEp-2 cells, RSV cytopathic effect inhibition. Kind of assay: RSV-induced CPE protection of HEp-2 cells – cell-based, synthesized compounds, set 8, dose response (AID 504820).
Experiment in assay [2]: as above
Particulars: HEp-2 cells, RSV cytopathic effect inhibition; at 50 µM (top of the series). A general note: Cytopathic effects are the visible damage that an infection or toxin causes in cultured cells.

Several values for one entry are separate records, joined by “and”; a condition that tells them apart may be missing. Equal values may be shown once. Activity calls are given as the source filed them. The rule behind the calls is not given here.

Consider `COc1ccccc1CNC(=O)C1CCN(S(=O)(=O)c2cccc3nonc23)CC1`, for which the IC50 (in general, the point on the concentration scale where inhibition reaches its midpoint) in assay [1] was 3.35 µM.

Turning to `Cc1ccc(NC(=O)C2CCCN2S(=O)(=O)c2cccc3ccccc23)c(C)c1` (configuration not stated), the CPE inhibition in assay [2] was 1.6% (inactive).

On to `Cc1ccc(NC(=O)C2CCCN2S(C)(=O)=O)c(C)c1` (configuration not stated), for which the CPE inhibition in assay [2] is 2.52% (inactive). Still for that read-out and setting: the value for `Cc1cccc(NC(=O)[C@@H]2CCCN2S(=O)(=O)c2cccc3cccnc23)c1` was 12.8% (inactive); that for `Cc1ccc(F)cc1NC(=O)[C@@H]1CCCN1S(=O)(=O)c1cccc2cccnc12` was 10.8% (inactive). Regarding `COCCCNC(=O)c1ccc(Cn2c(=O)c3ccccc3n(Cc3ccc([N+](=O)[O-])cc3)c2=O)cc1`, the IC50 in assay [1] is 0.55 µM. Regarding `CCCn1c(=O)n(Cc2ccc(C(=O)NCCCOC)cc2)c(=O)c2ccccc21`, the CPE inhibition in assay [2] was 2.28% (inactive).

As for `O=C([C@@H]1CCCN1S(=O)(=O)c1cccc2cccnc12)N1CCOCC1`, the CPE inhibition in assay [2] was 1.71% (inactive). As to `Cc1ccc(Cn2c(=O)n(Cc3ccc(C(=O)NC(C)(C)C)cc3)c(=O)c3ccccc32)cc1`, in assay [1], the IC50 is 1.25 µM. Consider `Cc1ccc(C(F)(F)F)cc1NC(=O)[C@@H]1CCCN1S(=O)(=O)c1cccc2cccnc12`, for which the CPE inhibition in assay [2] was 15% (inactive).

Consider `Cc1ccc(NC(=O)[C@@H]2CCCN2S(=O)(=O)c2cccc3cccnc23)cc1`, for which the CPE inhibition in assay [2] was 25.5% (inactive). Consider `COc1ccc(C)cc1NC(=O)[C@@H]1CCCN1S(=O)(=O)c1cccc2cccnc12`, for which the CPE inhibition in assay [2] is 4.82% (inactive). Take `COCCCNC(=O)c1ccc(Cn2c(=O)c3ccccc3n(C)c2=O)cc1`: the CPE inhibition in assay [2] was 19.2% (inactive).

`COCCCNC(=O)c1ccc(Cn2c(=O)c3ccccc3n(Cc3ccc(C(F)(F)F)cc3)c2=O)cc1`: the IC50 in assay [1] was 1.4 µM.

Consider `CC(C)c1ccccc1NC(=O)[C@@H]1CCCN1S(=O)(=O)c1cccc2cccnc12`, for which, in assay [1], the IC50 is 17.2 µM. Consider `Cc1ncccc1NC(=O)[C@@H]1CCCN1S(=O)(=O)c1cccc2cccnc12`, for which the CPE inhibition in assay [2] is 3.67% (inactive).

In the case of `Cc1ccc(C)c(NC(=O)[C@@H]2CCCN2S(=O)(=O)c2cccc3cccnc23)c1`, the IC50 in assay [1] was 2.9 µM and 1.7 µM. As for `Cc1cccc(NC(=O)[C@@H]2CCCN2S(=O)(=O)c2cccc3cccnc23)c1C`, the IC50 in assay [1] is 8.9 µM.

As for `Cc1ccc(NC(=O)C2CCCN2S(=O)(=O)c2ccccc2)c(C)c1` (configuration not stated), in assay [2], the CPE inhibition is 1.19% (inactive).

Regarding `COc1ccc(C)c(NC(=O)[C@@H]2CCCN2S(=O)(=O)c2cccc3cccnc23)c1`, in assay [1], the IC50 was 4.8 µM. Turning to `Cc1ccc(NC(=O)[C@@H]2CCCN2S(=O)(=O)c2cccc3nonc23)c(C)c1`, the CPE inhibition in assay [2] was 6.16% (inactive).

Regarding `Cc1ccc(NC(=O)CN(C)S(=O)(=O)c2cccc3cccnc23)c(C)c1`, the CPE inhibition in assay [2] was 46% (inactive). For the molecule `Cc1ccc(Cl)c(NC(=O)[C@@H]2CCCN2S(=O)(=O)c2cccc3cccnc23)c1`, in assay [2], the CPE inhibition was 8.49% (inactive). Regarding `Cc1ccc(NC(=O)C2CCCN2S(=O)(=O)c2ccc3ncccc3c2)c(C)c1` (configuration not stated), the CPE inhibition in assay [2] was 1.75% (inactive).

For `CC(C)(C)NC(=O)[C@@H]1CCCN1S(=O)(=O)c1cccc2cccnc12`, the CPE inhibition in assay [2] was 1.38% (inactive). For the molecule `Cc1ccc(Cn2c(=O)n(Cc3ccc(C(=O)Nc4ccncc4)cc3)c(=O)c3ccccc32)cc1`, in assay [1], the IC50 is 2.65 µM. As to `Cc1cc(NC(=O)[C@@H]2CCCN2S(=O)(=O)c2cccc3cccnc23)n(C(C)(C)C)n1`, the CPE inhibition in assay [2] is 33.2% (inactive). For `COCCCNC(=O)c1ccc(Cn2c(=O)c3ccccc3n(Cc3ccc4nonc4c3)c2=O)cc1`, the IC50 in assay [1] was 4.7 µM. On to `Cc1ccc(NC(=O)C2CCCN2S(=O)(=O)c2cccc3cccnc23)c(C)c1` (configuration not stated), for which the IC50 in assay [1] is 12.6 µM. Take `Cc1ccc(NC(=O)[C@@H]2CCCN2S(=O)(=O)c2cccc3cccnc23)c(C)n1`: the CPE inhibition in assay [2] was 4.2% (inactive). As for `COCCCNC(=O)c1ccc(Cn2c(=O)c3ccccc3n(Cc3ccc(Br)cc3)c2=O)cc1`, the IC50 in assay [1] was 1.15 µM. With `O=C(Nc1ccc(Cl)cc1Cl)[C@@H]1CCCN1S(=O)(=O)c1cccc2cccnc12`, in assay [2], the CPE inhibition was 2.1% (inactive). Still for that read-out and setting: the value for `Cc1cc(C)cc(NC(=O)[C@@H]2CCCN2S(=O)(=O)c2cccc3cccnc23)c1` was 33.1% (inactive).

In the case of `Cc1ccccc1NC(=O)[C@@H]1CCCN1S(=O)(=O)c1cccc2cccnc12`, in assay [1], the IC50 is 29 µM.

Take `Cc1ccc(NC(=O)[C@@H]2CCCN2S(=O)(=O)c2cccc3cccnc23)c(C)c1`: the IC50 in assay [1] is 3 µM.

`COCCCNC(=O)c1ccc(Cn2c(=O)c3ccccc3n(Cc3ccc(C)c(C(F)(F)F)c3)c2=O)cc1`: the IC50 in assay [1] was 1.5 µM. As for `COCCCNC(=O)c1ccc(Cn2c(=O)c3ccc(Br)cc3n(Cc3ccc(C)cc3)c2=O)cc1`, in assay [2], the CPE inhibition was 1.9% (inactive). On to `Cc1ccc(NC(=O)C(C)NS(=O)(=O)c2cccc3cccnc23)c(C)c1` (configuration not stated), for which the CPE inhibition in assay [2] was 4.35% (inactive).

`Cc1ccc(C(C)C)cc1NC(=O)[C@@H]1CCCN1S(=O)(=O)c1cccc2cccnc12`: the CPE inhibition in assay [2] was 7.9% (inactive). In the case of `Cc1ccc(Cl)cc1NC(=O)[C@@H]1CCCN1S(=O)(=O)c1cccc2cccnc12`, in assay [1], the IC50 is 2.5 µM. `Cc1ccc(C(C)(C)C)cc1NC(=O)[C@@H]1CCCN1S(=O)(=O)c1cccc2cccnc12`: the CPE inhibition in assay [2] is 2.81% (inactive). Take `Cc1ccc(Cn2c(=O)n(Cc3ccc(C(=O)Nc4cc(C)nc5ccccc45)cc3)c(=O)c3ccccc32)cc1`: in assay [2], the CPE inhibition was 2.83% (inactive).

With `COCCCNC(=O)c1ccc(Cn2c(=O)c3ccccc3n(Cc3cc(C)on3)c2=O)cc1`, in assay [2], the CPE inhibition is 6.33% (inactive).

For `CCc1ccccc1NC(=O)[C@@H]1CCCN1S(=O)(=O)c1cccc2cccnc12`, the IC50 in assay [1] was 20.8 µM. For the molecule `Cc1ccc(NC(=O)C2CCCN2S(=O)(=O)c2cccc3cnccc23)c(C)c1` (configuration not stated), the CPE inhibition in assay [2] is 3.25% (inactive). As to `Cc1ccc(NC(=O)CNS(=O)(=O)c2cccc3cccnc23)c(C)c1`, the CPE inhibition in assay [2] was 4.34% (inactive).

In the case of `Cc1ccc(NC(=O)C2CCCN2S(=O)(=O)c2cccc3cc(C)cnc23)c(C)c1` (configuration not stated), in assay [2], the CPE inhibition is 11.1% (inactive).

Turning to `Cc1cccc(C)c1NC(=O)[C@@H]1CCCN1S(=O)(=O)c1cccc2cccnc12`, the CPE inhibition in assay [2] was 44.1% (inactive). With `O=C(Nc1ccccc1)[C@@H]1CCCN1S(=O)(=O)c1cccc2cccnc12`, the CPE inhibition in assay [2] was 12.2% (inactive). On the same count and under the same terms, the value for `Cc1ccc(Cn2c(=O)n(Cc3ccc(C(=O)Nc4nccs4)cc3)c(=O)c3ccccc32)cc1` was 2.96% (inactive); that for `Cc1ccc(NC(=O)[C@H]2CCCN2S(=O)(=O)c2cccc3cccnc23)c(C)c1` was 26.6% (inactive). For `COCCCNC(=O)c1ccc(Cn2c(=O)c3ccccc3n(Cc3ccc(OC)cc3)c2=O)cc1`, in assay [1], the IC50 was 2.3 µM.
